{"source": "patent US20220339173A1", "about": "“ORAL COMPOSITION FOR IMPROVING MEMORY-LEARNING ABILITY” (priority 2019, published 2022)", "origin": "cited, not measured here", "system": "c-Fos activity", "data": [{"substance": "phosphatidylserine", "values": [{"measurement": "c-Fos activity in the hippocampus", "setting": "hippocampus", "value": "no changes"}, {"measurement": "c-Fos activity in the paraventricular nucleus", "setting": "paraventricular nucleus", "value": "changes in c-Fos activity in the brain region are found"}]}]}
